Source: patent US8952024B2, “Herbicidal pyrimidone derivatives” (E I du Pont de Nemours and Company, priority 2009, dated 2015)

Assays:
Experiment in all cases: Test D pre-/postemergence plant response
Assay type in all cases: in vivo
[1] = test system: kochia (Kochia scoparia)
From the text: (§1) Seeds of plant species selected from bermudagrass (Cynodon dactylon), Surinam grass (Brachiaria decumbens), large crabgrass (Digitaria sanguinalis), green foxtail (Setaria viridis), goosegrass (Eleusine indica), johnsongrass (Sorghum halepense), kochia (Kochia scoparia), morningglory (pitted morningglory, Ipomoea lacunosa), nutsedge (purple nutsedge, Cyperus rotundus), ragweed (common ragweed, Ambrosia elatior), black mustard (Brassica nigra), guineagrass (Panicum maximum), dallisgrass (Paspalum dilatatum), barnyardgrass (Echinochloa crus-galli), sandbur (southern sandbur, Cenchrus echinatus), sowthistle (common sowthistle, Sonchus oleraceous), prickly sida (Sida spinosa), Italian ryegrass (Lolium multiflorum), purslane (common purslane, Portulaca oleracea), signalgrass (broadleaf signalgrass, Brachiaria platyphylla), groundsel (common groundsel, Senecio vulgaris), chickweed (common chickweed, Stellaria media), dayflower (Virginia (VA) dayflower, Commelina virginica), bluegrass (annual bluegrass, Poa annua), naked crabgrass (Digitaria nuda), itchgrass (Rottboellia cochinchinensis), quackgrass (Elytrigia repens), field bindweed (Convolvulus arvensis), spanishneedles (Bidens bipinnata), mallow (common mallow, Malva sylvestris) and Russian thistle (Salsola kali), were planted into a blend of loam soil and sand and treated preemergence with test chemicals formulated in a non-phytotoxic solvent mixture which included a surfactant. At the same time, plants from these weed species were treated with postemergence applications of the test chemicals formulated in the same manner. Plants ranged in height from 2 to 18 cm (1- to 4-leaf stage) for postemergence treatments.
(§2) Treated plants and controls were maintained in a greenhouse for 14 to 21 days, after which time all species were visually evaluated and compared to controls. Plant response ratings, summarized in Table D, are based on a scale of 0 to 100 where 0 is no effect and 100 is complete control. A dash (-) response means no test result.

[2] = test system: groundsel (common groundsel, Senecio vulgaris); settings: Postemergence
From the text: as §1, §2

[3] = test system: purslane (common purslane, Portulaca oleracea)
From the text: as §1, §2

[4] = test system: mallow (common mallow, Malva sylvestris)
From the text: as §1, §2

[5] = test system: prickly sida (Sida spinosa)
From the text: as §1, §2

[6] = test system: spanishneedles (Bidens bipinnata)
From the text: as §1, §2

[7] = test system: bermudagrass (Cynodon dactylon)
From the text: as §1, §2

[8] = test system: johnsongrass (Sorghum halepense)
From the text: as §1, §2

[9] = test system: nutsedge (purple nutsedge, Cyperus rotundus)
From the text: as §1, §2

[10] = test system: field bindweed (Convolvulus arvensis)
From the text: as §1, §2

[11] = test system: goosegrass (Eleusine indica)
From the text: as §1, §2

[12] = test system: black mustard (Brassica nigra)
From the text: as §1, §2

[13] = test system: morningglory (pitted morningglory, Ipomoea lacunosa)
From the text: as §1, §2

[14] = test system: chickweed (common chickweed, Stellaria media)
From the text: as §1, §2

[15] = test system: sowthistle (common sowthistle, Sonchus oleraceous)
From the text: as §1, §2

[16] = test system: green foxtail (Setaria viridis)
From the text: as §1, §2

[17] = Postemergence, 31 g ai/ha, scale 0 to 100
[18] = Postemergence, 125 g ai/ha, scale 0 to 100 (0 no effect, 100 complete control)
[19] = Postemergence, 62 g ai/ha, scale 0 to 100 (0 no effect, 100 complete control)
[20] = Preemergence, 16 g ai/ha, scale 0 to 100, 0 no effect, 100 complete control
[21] = Preemergence, 31 g ai/ha, scale 0 to 100 (0 no effect, 100 complete control)
[22] = Preemergence, 62 g ai/ha, scale 0 to 100
[23] = Preemergence, 125 g ai/ha, scale 0 to 100
[24] = Postemergence, 16 g ai/ha, scale 0 to 100
[25] = Postemergence, 31 g ai/ha, scale 0 to 100 (0 no effect, 100 complete control)

O=C1CCCC(O)=C1C(=O)c1cnc(-c2cccs2)n(-c2ccccc2)c1=O [Compound 66]
Plant response rating, Kochia [1, 17]: 25 | Plant response rating, Kochia [1, 18]: 40 | Plant response rating, Kochia [1, 19]: 25 | Plant response rating, Kochia [1, 20]: 0 | Plant response rating, Kochia [1, 21]: 65 | Plant response rating, Kochia [1, 22]: 65 | Plant response rating, Kochia [1, 23]: 90 | Plant response rating, Groundsel ([2]; 31 g ai/ha, scale 0 to 100): 60 | Plant response rating, Groundsel ([2]; 125 g ai/ha, scale 0 to 100 (0 no effect, 100 complete control)): 80 | Plant response rating, Groundsel ([2]; 62 g ai/ha, scale 0 to 100 (0 no effect, 100 complete control)): 80 | Plant response rating, Purslane [3, 17]: 50 | Plant response rating, Purslane [3, 18]: 75 | Plant response rating, Purslane [3, 19]: 75 | Plant response rating, Purslane [3, 20]: 0 | Plant response rating, Purslane [3, 21]: 0 | Plant response rating, Purslane [3, 22]: 60 | Plant response rating, Purslane [3, 23]: 100 | Plant response rating, Mallow [4, 24]: 25 | Plant response rating, Mallow [4, 17]: 30 | Plant response rating, Mallow [4, 18]: 60 | Plant response rating, Mallow [4, 19]: 60 | Plant response rating, Mallow [4, 20]: 0 | Plant response rating, Mallow [4, 21]: 0 | Plant response rating, Mallow [4, 22]: 5 | Plant response rating, Mallow [4, 23]: 75 | Plant response rating, Prickly Sida [5, 17]: 98 | Plant response rating, Prickly Sida [5, 18]: 98 | Plant response rating, Prickly Sida [5, 19]: 98 | Plant response rating, Prickly Sida [5, 20]: 0 | Plant response rating, Prickly Sida [5, 21]: 0 | Plant response rating, Prickly Sida [5, 22]: 5 | Plant response rating, Prickly Sida [5, 23]: 90 | Plant response rating, Spanishneedles [6, 24]: 65 | Plant response rating, Spanishneedles [6, 17]: 70 | Plant response rating, Spanishneedles [6, 18]: 80 | Plant response rating, Spanishneedles [6, 19]: 80 | Plant response rating, Spanishneedles [6, 20]: 0 | Plant response rating, Spanishneedles [6, 21]: 60 | Plant response rating, Spanishneedles [6, 23]: 95 | Plant response rating, Bermudagrass [7, 24]: 5 | Plant response rating, Bermudagrass [7, 25]: 50 | Plant response rating, Bermudagrass [7, 18]: 65 | Plant response rating, Bermudagrass [7, 19]: 65 | Plant response rating, Bermudagrass [7, 20]: 0 | Plant response rating, Bermudagrass [7, 21]: 0 | Plant response rating, Bermudagrass [7, 22]: 5 | Plant response rating, Bermudagrass [7, 23]: 5 | Plant response rating, Johnsongrass [8, 24]: 0 | Plant response rating, Johnsongrass [8, 17]: 20 | Plant response rating, Johnsongrass [8, 18]: 60 | Plant response rating, Johnsongrass [8, 19]: 50 | Plant response rating, Johnsongrass [8, 20]: 0 | Plant response rating, Johnsongrass [8, 21]: 0 | Plant response rating, Johnsongrass [8, 22]: 0 | Plant response rating, Johnsongrass [8, 23]: 30 | Plant response rating, Nutsedge, Purple [9, 24]: 0 | Plant response rating, Nutsedge, Purple [9, 17]: 5 | Plant response rating, Nutsedge, Purple [9, 18]: 30 | Plant response rating, Nutsedge, Purple [9, 19]: 20 | Plant response rating, Nutsedge, Purple [9, 20]: 0 | Plant response rating, Nutsedge, Purple [9, 21]: 0 | Plant response rating, Nutsedge, Purple [9, 22]: 35 | Plant response rating, Nutsedge, Purple [9, 23]: 70 | Plant response rating, Field Bindweed [10, 24]: 0 | Plant response rating, Field Bindweed [10, 17]: 0 | Plant response rating, Field Bindweed [10, 18]: 0 | Plant response rating, Field Bindweed [10, 19]: 0 | Plant response rating, Field Bindweed [10, 20]: 0 | Plant response rating, Field Bindweed [10, 21]: 0 | Plant response rating, Field Bindweed [10, 22]: 0 | Plant response rating, Field Bindweed [10, 23]: 20 | Plant response rating, Goosegrass [11, 24]: 50 | Plant response rating, Goosegrass [11, 17]: 50 | Plant response rating, Goosegrass [11, 18]: 75 | Plant response rating, Goosegrass [11, 19]: 65 | Plant response rating, Goosegrass [11, 20]: 0 | Plant response rating, Goosegrass [11, 21]: 0 | Plant response rating, Goosegrass [11, 22]: 30 | Plant response rating, Goosegrass [11, 23]: 50 | Plant response rating, Black Mustard [12, 24]: 0 | Plant response rating, Black Mustard [12, 25]: 20 | Plant response rating, Black Mustard [12, 18]: 98 | Plant response rating, Black Mustard [12, 19]: 50 | Plant response rating, Black Mustard [12, 20]: 0 | Plant response rating, Black Mustard [12, 21]: 5 | Plant response rating, Black Mustard [12, 22]: 35 | Plant response rating, Black Mustard [12, 23]: 80 | Plant response rating, Morningglory [13, 24]: 65 | Plant response rating, Morningglory [13, 17]: 70 | Plant response rating, Morningglory [13, 18]: 90 | Plant response rating, Morningglory [13, 19]: 90 | Plant response rating, Morningglory [13, 20]: 0 | Plant response rating, Morningglory [13, 21]: 0 | Plant response rating, Morningglory [13, 22]: 90 | Plant response rating, Morningglory [13, 23]: 95 | Plant response rating, Chickweed [14, 18]: 95 | Plant response rating, Chickweed [14, 19]: 35 | Plant response rating, Chickweed [14, 20]: 0 | Plant response rating, Chickweed [14, 21]: 20 | Plant response rating, Chickweed [14, 22]: 90 | Plant response rating, Chickweed [14, 23]: 98 | Plant response rating, Sowthistle [15, 24]: 35 | Plant response rating, Sowthistle [15, 17]: 65 | Plant response rating, Sowthistle [15, 18]: 90 | Plant response rating, Sowthistle [15, 19]: 70 | Plant response rating, Sowthistle [15, 20]: 0 | Plant response rating, Sowthistle [15, 21]: 0 | Plant response rating, Sowthistle [15, 23]: 0 | Plant response rating, Foxtail, Green [16, 24]: 20 | Plant response rating, Foxtail, Green [16, 17]: 35 | Plant response rating, Foxtail, Green [16, 18]: 80 | Plant response rating, Foxtail, Green [16, 19]: 65 | Plant response rating, Foxtail, Green [16, 20]: 0 | Plant response rating, Foxtail, Green [16, 21]: 0 | Plant response rating, Foxtail, Green [16, 22]: 0 | Plant response rating, Foxtail, Green [16, 23]: 5
